Test results reported in patent US11596639B2, “Substituted indole Mcl-1 inhibitors” (Vanderbilt University, priority 2016, dated 2023).
pKi: −log10 of the molar value. Where two headings read alike, the source gives them in different places.

Assays:
[1] = test system: H929 human cancer cell lines; assay: Cellular viability / proliferation (Cell TiterGlo, 72 h); format: cell-based
Outline: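 Compounds were added as 2-fold serial dilutions from 50 μM (final DMSO <1%) to H929 cells seeded 1,000 per well in 10% FBS medium one day earlier.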

Mcl-1 = Mcl-1 (Homo sapiens (Human), UniProt Q07820); assay: TR-FRET binding assay, FITC-Bak peptide and MBP-tagged Mcl-1; details: read-out: Ki for Inhibition of Mcl-1 by TR-FRET assay
Mcl-1, sequence (Q07820 172-327): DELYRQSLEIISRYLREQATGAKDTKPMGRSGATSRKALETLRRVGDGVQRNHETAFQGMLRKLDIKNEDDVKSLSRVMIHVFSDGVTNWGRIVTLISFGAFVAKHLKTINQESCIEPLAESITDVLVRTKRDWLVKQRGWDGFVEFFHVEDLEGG
Experimental: Compounds are diluted in DMSO in a 16-point, semilog serial dilution scheme. […] The plate was mixed and incubated for 3 hours at room temperature. […] TR-FRET signal is plotted and IC50 and Ki values are calculated in the same manner as the fluorescence polarization anisotropy based competition assays.

[2] = Homo sapiens, NCI-H929, 72 h, read-out: GI50 on cellular proliferation of H929 human cancer cell lines, H929 cells, 72 h, Cell TiterGlo, 10% FBS

SMILES | GI50 [1, 2] | pKi (Mcl-1) | GI50 ([1]; H929 cells, 72 h, Cell TiterGlo, 10% FBS, read-out: GI50 on cellular proliferation of H929 human cancer cell lines)
Cc1cc(OCCCc2c3n(c4c(-c5c(C)ncnc5C)c(Cl)ccc24)[C@H](C)CN(c2cc(OCCN4CCOCC4)cc4cc(C(=O)O)n(C)c24)C3=O)cc(C)c1Cl [Example 558, (R)-7-(7-chloro-10-(3-(4-chloro-3,5-dimethylphenoxy)propyl)-6-(4,6-dimethylpyrimidin-5-yl)-4-methyl-1-oxo-3,4-dihydropyrazino[1,2-a]indol-2(1H)-yl)-1-methyl-5-(2-morpholinoethoxy)-1H-indole-2-carboxylic acid] | 0.31 µM | > 9.70 | –
Cc1cc(OCCCc2c3n(c4c(-c5c(C)nn(C)c5C)c(Cl)ccc24)[C@H](C)CN(c2cn(C[C@@H]4CCCN4C)c4ccc(C(=O)O)cc24)C3=O)cc(C)c1Cl [Example 690, 3-((R)-7-chloro-10-(3-(4-chloro-3,5-dimethylphenoxy)propyl)-4-methyl-1-oxo-6-(1,3,5-trimethyl-1H-pyrazol-4-yl)-3,4-dihydropyrazino[1,2-a]indol-2(1H)-yl)-1-(((S)-1-methylpyrrolidin-2-yl)methyl)-1H-indole-5-carboxylic acid] | 0.33 µM | 9.59 | –
Cc1cc(N2C[C@@H](C)n3c(c(CCCOc4cc(C)c(Cl)c(C)c4)c4ccc(Cl)c(-c5c(C)ncnc5C)c43)C2=O)c2c(c1)cc(C(=O)O)n2Cc1cccc(C)n1 [Example 576, (R)-7-(7-chloro-10-(3-(4-chloro-3,5-dimethylphenoxy)propyl)-6-(4,6-dimethylpyrimidin-5-yl)-4-methyl-1-oxo-3,4-dihydropyrazino[1,2-a]indol-2(1H)-yl)-5-methyl-1-((6-methylpyridin-2-yl)methyl)-1H-indole-2-carboxylic acid] | 0.35 µM | > 9.70 | –
Cc1cc(OCCCc2c3n(c4c(-c5c(C)nn(C)c5C)c(Cl)ccc24)[C@H](C)CN(c2cn(Cc4cscn4)c4ccc(C(=O)O)cc24)C3=O)cc(C)c1Cl [Example 532, (R)-3-(7-Chloro-10-(3-(4-chloro-3,5-dimethylphenoxy)propyl)-4-methyl-1-oxo-6-(1,3,5-trimethyl-1H-pyrazol-4-yl)-3,4-dihydropyrazino[1,2-a]indol-2(1H)-yl)-1-(thiazol-4-ylmethyl)-1H-indole-5-carboxylic acid] | 0.39 µM | 9.70 | –
Cc1cc(OCCCc2c3n(c4c(-c5c(C)nn(C)c5C)c(Cl)ccc24)[C@H](C)CN(c2cn(C[C@H]4CCC[N+]4(C)C)c4ccc(C(=O)O)cc24)C3=O)cc(C)c1Cl [Example 667, (R)-2-((5-carboxy-3-((R)-7-chloro-10-(3-(4-chloro-3,5-dimethylphenoxy)propyl)-4-methyl-1-oxo-6-(1,3,5-trimethyl-1H-pyrazol-4-yl)-3,4-dihydropyrazino[1,2-a]indol-2(1H)-yl)-1H-indol-1-yl)methyl)-1,1-dimethylpyrrolidin-1-ium] | – | > 9.70 | 8.2 µM
Cc1cc(OCCCc2c3n(c4c(-c5c(C)nn(C)c5C)c(Cl)ccc24)[C@H](C)CN(c2cc(CN4CCN(C)C(=O)C4)cc4cc(C(=O)O)n(C)c24)C3=O)cc(C)c1Cl [Example 628, (R)-7-(7-chloro-10-(3-(4-chloro-3,5-dimethylphenoxy)propyl)-4-methyl-1-oxo-6-(1,3,5-trimethyl-1H-pyrazol-4-yl)-3,4-dihydropyrazino[1,2-a]indol-2(1H)-yl)-1-methyl-5-((4-methyl-3-oxopiperazin-1-yl)methyl)-1H-indole-2-carboxylic acid] | 0.44 µM | > 9.70 | –
Cc1cc(OCCCc2c3n(c4c(-c5c(C)nn(C)c5C)c(Cl)ccc24)[C@H](C)CN(c2cn(C)c4ccc(-c5ncn(-c6ccccn6)n5)cc24)C3=O)cc(C)c1Cl [Example 647, (R)-7-Chloro-10-(3-(4-chloro-3,5-dimethylphenoxy)propyl)-4-methyl-2-(1-methyl-5-(1-(pyridin-2-yl)-1H-1,2,4-triazol-3-yl)-1H-indol-3-yl)-6-(1,3,5-trimethyl-1H-pyrazol-4-yl)-3,4-dihydropyrazino[1,2-a]indol-1(2H)-one] | 1.1 µM | 9.49 | –
Cc1cc(N2C[C@@H](C)n3c(c(CCCOc4cc(C)c(Cl)c(C)c4)c4ccc(Cl)c(-c5c(C)nn(C)c5C)c43)C2=O)c2c(c1)cc(C(=O)O)n2CCO [Example 657, (R)-7-(7-chloro-10-(3-(4-chloro-3,5-dimethylphenoxy)propyl)-4-methyl-1-oxo-6-(1,3,5-trimethyl-1H-pyrazol-4-yl)-3,4-dihydropyrazino[1,2-a]indol-2(1H)-yl)-1-(2-hydroxyethyl)-5-methyl-1H-indole-2-carboxylic acid] | 0.61 µM | > 9.70 | –
Cc1cc(OCCCc2c3n(c4c(-c5c(C)nn(C)c5C)c(Cl)ccc24)[C@H](C)CN(c2cc(NCCN4CCCC4)cc4c(C(=O)O)cn(C)c24)C3=O)cc(C)c1Cl [Example 486, (R)-7-(7-Chloro-10-(3-(4-chloro-3,5-dimethylphenoxy)propyl)-4-methyl-1-oxo-6-(1,3,5-trimethyl-1H-pyrazol-4-yl)-3,4-dihydropyrazino[1,2-a]indol-2(1H)-yl)-1-methyl-5-((2-(pyrrolidin-1-yl)ethyl)amino)-1H-indole-3-carboxylic acid] | 2.9 µM | 8.85 | –
COc1ccc(N2C[C@@H](C)n3c(c(CCCOc4cc(C)c(Cl)c(C)c4)c4ccc(Cl)c(-c5c(C)nn(C)c5C)c43)C2=O)c2c1cc(C(=O)O)n2Cc1cccc(C)n1 [Example 593, (R)-7-(7-chloro-10-(3-(4-chloro-3,5-dimethylphenoxy)propyl)-4-methyl-1-oxo-6-(1,3,5-trimethyl-1H-pyrazol-4-yl)-3,4-dihydropyrazino[1,2-a]indol-2(1H)-yl)-4-methoxy-1-((6-methylpyridin-2-yl)methyl)-1H-indole-2-carboxylic acid] | < 0.2 µM | > 9.70 | –
Cc1nn(C)c(C)c1-c1c(Cl)ccc2c(CCCOc3cccc4ccccc34)c3n(c12)[C@H](C)CN(c1cn(C)c2ccc(C(=O)O)cc12)C3=O [Example 545, (R)-3-(7-Chloro-4-methyl-10-(3-(naphthalen-1-yloxy)propyl)-1-oxo-6-(1,3,5-trimethyl-1H-pyrazol-4-yl)-3,4-dihydropyrazino[1,2-a]indol-2(1H)-yl)-1-methyl-1H-indole-5-carboxylic acid] | 0.56 µM | 9.41 | –
COc1ccc(N2C[C@@H](C)n3c(c(CCCOc4cc(C)c(Cl)c(C)c4)c4ccc(Cl)c(-c5c(C)n[nH]c5C)c43)C2=O)c2c1cc(C(=O)O)n2C [Example 727, (R)-7-(7-chloro-10-(3-(4-chloro-3,5-dimethylphenoxy)propyl)-6-(3,5-dimethyl-1H-pyrazol-4-yl)-4-methyl-1-oxo-3,4-dihydropyrazino[1,2-a]indol-2(1H)-yl)-4-methoxy-1-methyl-1H-indole-2-carboxylic acid] | 0.5 µM | > 9.70 | –
Cc1cc(OCCCc2c3n(c4c(-c5c(C)nn(C)c5C)c(Cl)ccc24)[C@H](C)CN(c2cccc4c(C(=O)O)c5n(c24)CCN(C)C5=O)C3=O)cc(C)c1Cl [Example 562, (R)-7-chloro-10-(3-(4-chloro-3,5-dimethylphenoxy)propyl)-2′,4-dimethyl-1,1′-dioxo-6-(1,3,5-trimethyl-1H-pyrazol-4-yl)-1′,2′,3,3′,4,4′-hexahydro-1H-[2,6′-bipyrazino[1,2-a]indole]-10′-carboxylic acid] | 1.2 µM | 9.01 | –
Cc1cc(OCCCc2c3n(c4c(-c5c(C)nn(C)c5C)c(Cl)ccc24)[C@H](C)CN(c2cccc4cc(C(=O)O)n(Cc5ccncn5)c24)C3=O)cc(C)c1Cl [Example 518, (R)-7-(7-chloro-10-(3-(4-chloro-3,5-dimethylphenoxy)propyl)-4-methyl-1-oxo-6-(1,3,5-trimethyl-1H-pyrazol-4-yl)-3,4-dihydropyrazino[1,2-a]indol-2(1H)-yl)-1-(pyrimidin-4-ylmethyl)-1H-indole-2-carboxylic acid] | 0.81 µM | > 9.70 | –
Cc1cc(OCCCc2c3n(c4c(-c5c(C)nc(CN6CCN(C)C(=O)C6)nc5C)c(Cl)ccc24)[C@H](C)CN(c2cn(C)c4ccc(-c5ncn(C)n5)cc24)C3=O)cc(C)c1Cl [Example 663, (R)-7-chloro-10-(3-(4-chloro-3,5-dimethylphenoxy)propyl)-6-(4,6-dimethyl-2-((4-methyl-3-oxopiperazin-1-yl)methyl)pyrimidin-5-yl)-4-methyl-2-(1-methyl-5-(1-methyl-1H-1,2,4-triazol-3-yl)-1H-indol-3-yl)-3,4-dihydropyrazino[1,2-a]indol-1(2H)-one] | < 0.2 µM | 9.28 | –
Cc1cc(OCCCc2c3n(c4c(-c5c(C)nn(C)c5C)c(Cl)ccc24)[C@H](C)CN(c2cn(CCN4CCN(C)CC4)c4ccc(C(=O)O)cc24)C3=O)cc(C)c1Cl [Example 569, (R)-3-(7-chloro-10-(3-(4-chloro-3,5-dimethylphenoxy)propyl)-4-methyl-1-oxo-6-(1,3,5-trimethyl-1H-pyrazol-4-yl)-3,4-dihydropyrazino[1,2-a]indol-2(1H)-yl)-1-(2-(4-methylpiperazin-1-yl)ethyl)-1H-indole-5-carboxylic acid] | 0.47 µM | 9.31 | –
COCCOc1cc(N2C[C@@H](C)n3c(c(CCCOc4cc(C)c(Cl)c(C)c4)c4ccc(Cl)c(-c5c(C)ncnc5C)c43)C2=O)c2c(c1)cc(C(=O)O)n2Cc1cccc(C)n1 [Example 571, (R)-7-(7-chloro-10-(3-(4-chloro-3,5-dimethylphenoxy)propyl)-6-(4,6-dimethylpyrimidin-5-yl)-4-methyl-1-oxo-3,4-dihydropyrazino[1,2-a]indol-2(1H)-yl)-5-(2-methoxyethoxy)-1-((6-methylpyridin-2-yl)methyl)-1H-indole-2-carboxylic acid] | < 0.2 µM | > 9.70 | –
